Patent US11739074B2, “Ras inhibitors” (Revolution Medicines, Inc., priority 2019, dated 2023)
Where two headings read alike, the source gives them in different places.

Columns and labels:
[1] = ester bond, EDCI/HOBt/DIPEA, DCM, 25.0 °C, 16.0 h
NRAS WT = target: T1, NRAS WT (Homo sapiens, UniProt P01111+P62937); assay: Ras-Raf disruption/FRET/MOA assay, NRAS WT; assay type: biochemical; conditions: NRAS WT; read-out: NRAS WT FRET data IC50
T1 construct: His6
Description: (§1) Disruption of B-Raf Ras-Binding Domain (BRAF^RBD) Interaction with K-Ras by Compounds of the Invention (Also Called a FRET Assay or an MOA Assay)
(§2) Note—The following protocol describes a procedure for monitoring disruption of K-Ras G12C (GMP-PNP) binding to BRAF^RBD by a compound of the invention. This protocol may also be executed substituting other Ras proteins or nucleotides, such as K-Ras G12D and K-Ras G13D.
(§3) The purpose of this biochemical assay was to measure the ability of test compounds to facilitate ternary complex formation between a nucleotide-loaded K-Ras isoform and Cyclophilin A; the resulting ternary complex disrupts binding to a BRAF^RBD construct, inhibiting K-Ras signaling through a RAF effector.
(§4) In assay buffer containing 25 mM HEPES pH 7.3, 0.002% Tween20, 0.1% BSA, 100 mM NaCl and 5 mM MgCl2, tagless Cyclophilin A, His6-K-Ras-GMPPNP, and GST-BRAF^RBD were combined in a 384-well assay plate at final concentrations of 25 μM, 12.5 nM, and 50 nM, respectively. Compound was present in plate wells as a 10-point 3-fold dilution series starting at a final concentration of 30 μM. After incubation at 25° C. for 3 hours, a mixture of anti-His Eu-W1024 and anti-GST allophycocyanin was then added to assay sample wells at final concentrations of 10 nM and 50 nM, respectively, and the reaction incubated for an additional 1.5 hours. […] Compounds that facilitate disruption of a K-Ras:RAF complex were identified as those eliciting a decrease in the TR-FRET ratio relative to DMSO control wells.

KRAS G12D = KRAS G12D (Homo sapiens, UniProt P01116+P62937, G12D); assay: Ras-Raf disruption/FRET/MOA assay, KRAS G12D; assay type: biochemical; conditions: disruption of BRAF RBD binding, with Cyclophilin A; read-out: KRAS G12D FRET IC50
In short: (§5)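 His6-K-Ras-GMPPNP (12.5 nM) was incubated with GST-BRAF RBD (50 nM), tagless cyclophilin A (25 µM) and compound (10-point 3-fold series from 30 µM) in HEPES pH 7.3 buffer for 3 h at 25 °C. Anti-His Eu/anti-GST APC were then added for 1.5 h; disruption was read as a drop in TR-FRET ratio versus DMSO.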

KRAS G12V = KRAS G12V (Homo sapiens, UniProt P01116+P62937, G12V); assay: Ras-Raf disruption/FRET/MOA assay, KRAS G12V; assay type: biochemical; conditions: disruption of BRAF RBD binding, with Cyclophilin A; read-out: KRAS G12V FRET IC50
In short: as §5

AsPC-1 (K-Ras G12D) [2] = assay: CellTiter-Glo cell viability assay, AsPC-1; assay type: cell-based; conditions: Homo sapiens, ASPC1, 120 h, AsPC-1, K-Ras G12D, 5-day treatment; read-out: AsPC-1 Cell Viability IC50
In short: (§6)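 Viability is scored by CellTiter-Glo luminescence on day 5 of compound treatment, relative to vehicle (DMSO) wells set as 100%, with a four-parameter logistic fit.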

AsPC-1 (K-Ras G12D) [3] = assay: Potency assay: pERK in AsPC-1 cells; assay type: cell-based; conditions: Homo sapiens, ASPC1; AsPC-1 cells, K-Ras G12D; read-out: pERK EC50 (AsPC-1 KRAS G12D)
NRAS Q61R = target: T2, NRAS Q61R (Homo sapiens, UniProt P01111+P62937, Q61R); assay: Ras-Raf disruption/FRET/MOA assay, NRAS Q61R; assay type: biochemical; conditions: NRAS Q61R; read-out: NRAS Q61R FRET data IC50
T2 construct: His6
Description: as §1, §2, §3, §4

KRAS WT = KRAS WT (Homo sapiens, UniProt P01116+P62937); assay: Ras-Raf disruption/FRET/MOA assay, KRAS WT; assay type: biochemical; conditions: disruption of BRAF RBD binding, with Cyclophilin A; read-out: KRAS WT FRET IC50
In short: as §5

NRAS G12C = target: T3, NRAS G12C (Homo sapiens, UniProt P01111+P62937, G12C); assay: Ras-Raf disruption/FRET/MOA assay, NRAS G12C; assay type: biochemical; conditions: NRAS G12C; read-out: NRAS G12C FRET data IC50
T3 construct: His6
In short: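 Disruption of Ras:RAF binding was read as a drop in TR-FRET ratio versus DMSO controls. The buffer was 25 mM HEPES pH 7.3, 0.002% Tween20, 0.1% BSA, 100 mM NaCl and 5 mM MgCl2. Compounds were tested as a 10-point 3-fold dilution series from 30 μM. Detection used 10 nM anti-His Eu-W1024 and 50 nM anti-GST allophycocyanin.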

KRAS G12C = KRAS G12C (Homo sapiens, UniProt P01116+P62937, G12C); assay: Ras-Raf disruption/FRET/MOA assay, KRAS G12C; assay type: biochemical; conditions: disruption of BRAF RBD binding, with Cyclophilin A; read-out: KRAS G12C FRET IC50
In short: as §5

KRAS G12S = KRAS G12S (Homo sapiens, UniProt P01116+P62937, G12S); assay: Ras-Raf disruption/FRET/MOA assay, KRAS G12S; assay type: biochemical; conditions: disruption of BRAF RBD binding, with Cyclophilin A; read-out: KRAS G12S FRET IC50
In short: as §5

NCI-H358 (K-Ras G12C) = assay: CellTiter-Glo cell viability assay, H358; assay type: cell-based; conditions: Homo sapiens, NCI-H358, 120 h, NCI-H358, K-Ras G12C, 5-day treatment; read-out: H358 Cell Viability IC50
In short: as §6

KRAS G13D = KRAS G13D (Homo sapiens, UniProt P01116+P62937, G13D); assay: Ras-Raf disruption/FRET/MOA assay, KRAS G13D; assay type: biochemical; conditions: disruption of BRAF RBD binding, with Cyclophilin A; read-out: KRAS G13D FRET IC50
In short: as §5

KRAS Q61H = KRAS Q61H (Homo sapiens, UniProt P01116+P62937, Q61H); assay: Ras-Raf disruption/FRET/MOA assay, KRAS Q61H; assay type: biochemical; conditions: KRAS Q61H; read-out: KRAS Q61H FRET data IC50
Description: as §1, §2, §3, §4

NRAS Q61K = target: T4, NRAS Q61K (Homo sapiens, UniProt P01111+P62937, Q61K); assay: Ras-Raf disruption/FRET/MOA assay, NRAS Q61K; assay type: biochemical; conditions: NRAS Q61K; read-out: NRAS Q61K FRET data IC50
T4 construct: His6
Description: as §1, §2, §3, §4

KRAS G13C = KRAS G13C (Homo sapiens, UniProt P01116+P62937, G13C); assay: Ras-Raf disruption/FRET/MOA assay, KRAS G13C; assay type: biochemical; conditions: disruption of BRAF RBD binding, with Cyclophilin A; read-out: KRAS G13C FRET IC50
In short: as §5

Sequence of KRAS G12C (P01116 1-169 isoform P01116-2 G12C limits assumed): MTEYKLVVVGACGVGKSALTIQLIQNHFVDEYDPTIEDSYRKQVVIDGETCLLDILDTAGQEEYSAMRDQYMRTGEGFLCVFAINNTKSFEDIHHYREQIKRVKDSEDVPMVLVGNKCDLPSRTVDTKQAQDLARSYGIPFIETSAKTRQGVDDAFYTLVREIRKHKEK
Sequence of KRAS G12C (P62937 whole entry): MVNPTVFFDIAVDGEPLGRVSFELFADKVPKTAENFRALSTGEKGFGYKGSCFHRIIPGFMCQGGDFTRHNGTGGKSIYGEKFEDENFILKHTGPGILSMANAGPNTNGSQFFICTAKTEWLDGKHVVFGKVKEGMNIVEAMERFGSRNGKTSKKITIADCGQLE
Sequence of KRAS G12V (P01116 1-169 isoform P01116-2 G12V limits assumed): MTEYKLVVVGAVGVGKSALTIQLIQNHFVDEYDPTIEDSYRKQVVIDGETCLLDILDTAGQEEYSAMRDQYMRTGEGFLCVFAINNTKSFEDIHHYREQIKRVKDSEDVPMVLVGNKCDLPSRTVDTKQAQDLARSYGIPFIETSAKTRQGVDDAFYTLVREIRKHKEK
Sequence of KRAS G12V (P62937 whole entry): as the sequence (P62937 whole entry) above
Sequence of KRAS Q61H (P01116 1-169 isoform P01116-2 Q61H limits assumed): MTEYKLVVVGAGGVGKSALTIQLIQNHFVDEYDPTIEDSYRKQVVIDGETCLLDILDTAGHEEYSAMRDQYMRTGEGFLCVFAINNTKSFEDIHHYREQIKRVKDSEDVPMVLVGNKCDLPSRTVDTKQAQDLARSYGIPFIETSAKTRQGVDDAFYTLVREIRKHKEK
Sequence of KRAS Q61H (P62937 whole entry): as the sequence (P62937 whole entry) above
Sequence of KRAS WT (P01116 1-169 isoform P01116-2 limits assumed): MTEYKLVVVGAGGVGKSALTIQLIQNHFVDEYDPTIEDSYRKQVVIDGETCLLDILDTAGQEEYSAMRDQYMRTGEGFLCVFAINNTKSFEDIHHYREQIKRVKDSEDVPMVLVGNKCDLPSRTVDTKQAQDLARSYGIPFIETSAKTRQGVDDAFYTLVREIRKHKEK
Sequence of KRAS WT (P62937 whole entry): as the sequence (P62937 whole entry) above
Sequence of KRAS G13D (P01116 1-169 isoform P01116-2 G13D limits assumed): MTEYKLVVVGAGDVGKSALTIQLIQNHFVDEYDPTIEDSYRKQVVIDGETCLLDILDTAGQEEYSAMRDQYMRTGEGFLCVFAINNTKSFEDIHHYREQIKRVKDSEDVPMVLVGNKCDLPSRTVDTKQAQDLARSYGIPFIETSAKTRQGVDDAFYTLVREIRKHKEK
Sequence of KRAS G13D (P62937 whole entry): as the sequence (P62937 whole entry) above
T3 sequence (P01111 whole entry G12C): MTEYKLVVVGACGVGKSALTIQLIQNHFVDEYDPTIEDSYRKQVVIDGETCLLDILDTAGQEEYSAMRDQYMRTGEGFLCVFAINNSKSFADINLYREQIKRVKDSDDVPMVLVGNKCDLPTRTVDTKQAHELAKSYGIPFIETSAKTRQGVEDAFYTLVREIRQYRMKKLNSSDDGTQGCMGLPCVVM
T3 sequence (P62937 whole entry): as the sequence (P62937 whole entry) above
T2 sequence (P01111 whole entry Q61R): as the sequence (P01111 whole entry G12C) above, with C12G, Q61R counted along it
T2 sequence (P62937 whole entry): as the sequence (P62937 whole entry) above
Sequence of KRAS G13C (P01116 1-169 isoform P01116-2 G13C limits assumed): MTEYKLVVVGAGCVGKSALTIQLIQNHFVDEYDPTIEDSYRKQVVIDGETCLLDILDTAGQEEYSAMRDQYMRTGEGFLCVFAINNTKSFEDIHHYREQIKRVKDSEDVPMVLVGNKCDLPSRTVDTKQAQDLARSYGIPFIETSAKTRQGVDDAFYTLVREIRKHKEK
Sequence of KRAS G13C (P62937 whole entry): as the sequence (P62937 whole entry) above
T1 sequence (P01111 whole entry): as the sequence (P01111 whole entry G12C) above, with C12G counted along it
T1 sequence (P62937 whole entry): as the sequence (P62937 whole entry) above
Sequence of KRAS G12D (P01116 1-169 isoform P01116-2 G12D limits assumed): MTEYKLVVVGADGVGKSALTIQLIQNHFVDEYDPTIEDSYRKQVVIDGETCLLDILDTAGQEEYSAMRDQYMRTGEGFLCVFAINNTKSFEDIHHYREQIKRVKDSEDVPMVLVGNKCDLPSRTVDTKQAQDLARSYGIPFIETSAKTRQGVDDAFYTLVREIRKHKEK
Sequence of KRAS G12D (P62937 whole entry): as the sequence (P62937 whole entry) above
T4 sequence (P01111 whole entry Q61K): as the sequence (P01111 whole entry G12C) above, with C12G, Q61K counted along it
T4 sequence (P62937 whole entry): as the sequence (P62937 whole entry) above
Sequence of KRAS G12S (P01116 1-169 isoform P01116-2 G12S limits assumed): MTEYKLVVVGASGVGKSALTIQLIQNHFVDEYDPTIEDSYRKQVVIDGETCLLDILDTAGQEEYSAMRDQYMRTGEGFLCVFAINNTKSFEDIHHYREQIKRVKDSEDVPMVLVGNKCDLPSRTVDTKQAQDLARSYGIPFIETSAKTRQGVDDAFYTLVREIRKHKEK
Sequence of KRAS G12S (P62937 whole entry): as the sequence (P62937 whole entry) above

| SMILES | ring closure, yield of all isomers ([1]; from CC(C)[Si](Oc1cc(C[C@H](NC(=O)OC(C)(C)C)C(=O)N2CCC[C@@H](C(=O)O)N2)cc(-c2ccc3[nH]c(I)c(CC(C)(C)CO)c3c2)c1)(C(C)C)C(C)C, 22.8 mM) [%] | IC50 (NRAS WT) [nM] | IC50 (KRAS G12D) [nM] | IC50 (KRAS G12V) [nM] | IC50 (AsPC-1 (K-Ras G12D) [2]) [nM] | EC50 (AsPC-1 (K-Ras G12D) [3]) [nM] | IC50 (NRAS Q61R) [nM] | IC50 (KRAS WT) [nM] | IC50 (NRAS G12C) [nM] | IC50 (KRAS G12C) [nM] | IC50 (KRAS G12S) [nM] | IC50 (NCI-H358 (K-Ras G12C)) [nM] | IC50 (KRAS G13D) [nM] | IC50 (KRAS Q61H) [nM] | IC50 (NRAS Q61K) [nM] | IC50 (KRAS G13C) [nM] | ring closure, yield of all isomers ([1]; from CCn1c(-c2cccnc2[C@H](C)OC)c(CC(C)(C)CO)c2cc(-c3csc(C[C@H](NC(=O)OC(C)(C)C)C(=O)N4CCC[C@@H](C(=O)O)N4)n3)ccc21, 12.65 mM) [%] |
| --- | --- | --- | --- | --- | --- | --- | --- | --- | --- | --- | --- | --- | --- | --- | --- | --- | --- |
| CC(C)[Si](Oc1cc2cc(c1)-c1ccc3[nH]c(I)c(c3c1)CC(C)(C)COC(=O)[C@@H]1CCCN(N1)C(=O)[C@@H](NC(=O)OC(C)(C)C)C2)(C(C)C)C(C)C | 50 | – | – | – | – | – | – | – | – | – | – | – | – | – | – | – | – |
| CCn1c(-c2cccnc2[C@H](C)OC)c2c3cc(ccc31)-c1cc(O)cc(c1)C[C@H](NC(=O)[C@H](C(C)C)N1CO[C@]3(CCN(C(=O)[C@H]4CN4)C3)C1=O)C(=O)N1CCC[C@H](N1)C(=O)OCC(C)(C)C2 [Compound 231] | – | 10 to 100 | 10 to 100 | 10 to 100 | 100 to 1000 | < 5000 | 100 to 1000 | 10 to 100 | < 10 | < 10 | 10 to 100 | < 10 | 10 to 100 | < 10 | 10 to 100 | < 10 | – |
| CCn1c(-c2cccnc2[C@H](C)OC)c2c3cc(ccc31)-c1csc(n1)C[C@H](NC(=O)[C@H](C(C)C)N(C)C(=O)N1CCC[C@@H](N(C)C(=O)[C@H]3CN3)C1)C(=O)N1CCC[C@H](N1)C(=O)OCC(C)(C)C2 (atropisomer, axis not shown) [Compound 289] | – | 10 to 100 | 100 to 1000 | 100 to 1000 | 100 to 1000 | < 5000 | 10 to 100 | 10 to 100 | 10 to 100 | 10 to 100 | 10 to 100 | 10 to 100 | 100 to 1000 | 10 to 100 | 10 to 100 | 100 to 1000 | – |
| CCn1c(-c2cccnc2[C@H](C)OC)c2c3cc(ccc31)-c1csc(n1)C[C@H](NC(=O)OC(C)(C)C)C(=O)N1CCC[C@H](N1)C(=O)OCC(C)(C)C2 | – | – | – | – | – | – | – | – | – | – | – | – | – | – | – | – | 81.1 |
| CCn1c(-c2cccnc2[C@H](C)OC)c2c3cc(ccc31)-c1csc(n1)C[C@H](NC(=O)[C@H](C(C)C)N(C)C(=O)N1C3CCC1CN(C(=O)[C@H]1CN1)C3)C(=O)N1CCC[C@H](N1)C(=O)OCC(C)(C)C2 [Compound 303] | – | 100 to 1000 | 100 to 1000 | 100 to 1000 | 100 to 1000 | < 5000 | 100 to 1000 | 100 to 1000 | 100 to 1000 | 100 to 1000 | 100 to 1000 | 10 to 100 | 100 to 1000 | 10 to 100 | 100 to 1000 | 100 to 1000 | – |
